Measurements taken from PubChem BioAssay AID222 (DTP/NCI, 2004).
“And” between values parts separate entries of the source, which are not always exact repeats. Equal entries are not always repeated. Inconclusive results and toxic doses are left out. The calls were made as follows: active = survival T/C of 150% or more; inactive = T/C below 125% in these data.

Test system: C57BL/6 mice, intracerebral ependymoblastoma, median survival T/C
Assay: NCI In Vivo Anticancer Drug Screen. Data for tumor model Ependymoblastoma (intracerebral) in C57BL/6 mice
Details: endpoint: median survival time, higher = longer survival
Protocol: The antitumor activity of compounds was measured in mice bearing transplantable tumors. Survival or tumor size were measured and the results are expressed as the measurement made in the treated group (T) divided by the measurement made in the vehicle treated control group (C). The tumor model used in this assay is Ependymoblastoma (intracerebral) in C57BL/6 mice

Measured: T/C

NC(=S)N/N=C/c1ccc(O)cn1
inactive: dose: 12.0 mg/kg/injection, schedule: Q01DX005 (ip), vehicle: saline 108 % of control | dose: 24.0 mg/kg/injection, schedule: Q01DX005 (ip), vehicle: saline 94 % of control | dose: 48.0 mg/kg/injection, schedule: Q01DX005 (ip), vehicle: saline 101 % of control | dose: 96.0 mg/kg/injection, schedule: Q01DX005 (ip), vehicle: saline 104 % of control

COc1cccc2c1C(=O)c1c(O)c3c(c(O)c1C2=O)C[C@@](O)(C(=O)CO)C[C@@H]3OC1CC(N)C(O)C(C)O1 (stereo partly specified)
inactive: dose: 0.12 mg/kg/injection, schedule: Q01DX001 (ip), vehicle: saline 96 % of control | dose: 0.25 mg/kg/injection, schedule: Q01DX001 (ip), vehicle: saline 86 % of control | dose: 0.25 mg/kg/injection, schedule: Q01DX005 (ip), vehicle: saline 108 % of control | dose: 0.25 mg/kg/injection, schedule: Q01DX009 (ip), vehicle: saline 107 % of control | dose: 0.25 mg/kg/injection, schedule: Q07DX003 (ip), vehicle: saline 106 % of control | dose: 0.25 mg/kg/injection, schedule: Q## X006 (ip), vehicle: saline 100 % of control | dose: 0.5 mg/kg/injection, schedule: Q01DX001 (ip), vehicle: saline 88 % of control | dose: 0.5 mg/kg/injection, schedule: Q01DX005 (ip), vehicle: saline 108 % of control | dose: 0.5 mg/kg/injection, schedule: Q01DX009 (ip), vehicle: saline 103 % of control | dose: 0.5 mg/kg/injection, schedule: Q## X006 (ip), vehicle: saline 119 % of control | dose: 0.5 mg/kg/injection, schedule: Q#A X002 (ip), vehicle: saline 105 % of control | dose: 1.0 mg/kg/injection, schedule: Q01DX001 (ip), vehicle: saline 96 % of control (2×) and 100 % of control | dose: 1.0 mg/kg/injection, schedule: Q01DX005 (ip), vehicle: saline 110 % of control | dose: 1.0 mg/kg/injection, schedule: Q01DX005 (oral), vehicle: saline 100 % of control | dose: 1.0 mg/kg/injection, schedule: Q07DX003 (ip), vehicle: saline 96 % of control | dose: 1.0 mg/kg/injection, schedule: Q## X006 (ip), vehicle: saline 110 % of control | dose: 1.0 mg/kg/injection, schedule: Q#A X002 (ip), vehicle: saline 97 % of control | dose: 2.0 mg/kg/injection, schedule: Q01DX001 (ip), vehicle: saline 104 % of control and 106 % of control and 111 % of control | dose: 2.0 mg/kg/injection, schedule: Q01DX005 (ip), vehicle: saline 103 % of control | dose: 2.0 mg/kg/injection, schedule: Q07DX003 (ip), vehicle: saline 101 % of control | dose: 2.0 mg/kg/injection, schedule: Q## X006 (ip), vehicle: saline 119 % of control | dose: 2.0 mg/kg/injection, schedule: Q#A X002 (ip), vehicle: saline 93 % of control | dose: 4.0 mg/kg/injection, schedule: Q01DX001 (oral), vehicle: saline 101 % of control and 109 % of control | dose: 4.0 mg/kg/injection, schedule: Q01DX005 (oral), vehicle: saline 94 % of control | dose: 4.0 mg/kg/injection, schedule: Q#A X002 (ip), vehicle: saline 101 % of control and 108 % of control | dose: 8.0 mg/kg/injection, schedule: Q01DX001 (oral), vehicle: saline 92 % of control and 97 % of control | dose: 8.0 mg/kg/injection, schedule: Q01DX005 (oral), vehicle: saline 100 % of control | dose: 8.0 mg/kg/injection, schedule: Q#A X002 (ip), vehicle: saline 97 % of control | dose: 16.0 mg/kg/injection, schedule: Q01DX001 (ip), vehicle: saline 101 % of control | dose: 16.0 mg/kg/injection, schedule: Q01DX001 (oral), vehicle: saline 96 % of control and 98 % of control and 106 % of control | dose: 16.0 mg/kg/injection, schedule: Q#A X002 (ip), vehicle: saline 89 % of control | dose: 32.0 mg/kg/injection, schedule: Q01DX001 (ip), vehicle: saline 100 % of control | dose: 32.0 mg/kg/injection, schedule: Q01DX001 (oral), vehicle: saline 89 % of control and 92 % of control and 109 % of control | dose: 32.0 mg/kg/injection, schedule: Q#A X002 (ip), vehicle: saline 86 % of control | dose: 64.0 mg/kg/injection, schedule: Q01DX001 (oral), vehicle: saline 103 % of control and 107 % of control and 86 % of control | dose: 64.0 mg/kg/injection, schedule: Q#A X002 (ip), vehicle: saline 88 % of control | dose: 128.0 mg/kg/injection, schedule: Q01DX001 (ip), vehicle: saline 88 % of control | dose: 128.0 mg/kg/injection, schedule: Q01DX001 (oral), vehicle: saline 93 % of control and 103 % of control and 107 % of control | dose: 128.0 mg/kg/injection, schedule: Q#A X002 (ip), vehicle: saline 86 % of control | dose: 256.0 mg/kg/injection, schedule: Q01DX001 (oral), vehicle: saline 103 % of control and 111 % of control

CS(C)=O
inactive: dose: 1.5 grams/kg/injection, schedule: Q01DX005 (ip), vehicle: saline 103 % of control | dose: 6.0 grams/kg/injection, schedule: Q01DX005 (ip), vehicle: saline 103 % of control

CCC1(O)CC2CN(CCc3c([nH]c4ccccc34)C(C(=O)OC)(c3cc4c(cc3OC)N(C)C3C(O)(C(=O)NCCO)C(O)C5(CC)C=CCN6CCC43C65)C2)C1 (stereo unspecified)
inactive: dose: 0.05 mg/kg/injection, schedule: Q01DX005 (ip), vehicle: saline 108 % of control | dose: 0.1 mg/kg/injection, schedule: Q01DX005 (ip), vehicle: saline 113 % of control | dose: 0.2 mg/kg/injection, schedule: Q01DX005 (ip), vehicle: saline 117 % of control | dose: 0.4 mg/kg/injection, schedule: Q01DX005 (ip), vehicle: saline 108 % of control | dose: 0.8 mg/kg/injection, schedule: Q01DX005 (ip), vehicle: saline 108 % of control

CNc1nc(N(C)C)nc(N(C)C)n1
inactive: dose: 3.12 mg/kg/injection, schedule: Q01DX005 (ip), vehicle: saline 103 % of control | dose: 6.25 mg/kg/injection, schedule: Q01DX005 (ip), vehicle: saline 96 % of control | dose: 12.5 mg/kg/injection, schedule: Q01DX005 (ip), vehicle: saline 97 % of control | dose: 25.0 mg/kg/injection, schedule: Q01DX005 (ip), vehicle: saline 108 % of control | dose: 50.0 mg/kg/injection, schedule: Q01DX005 (ip), vehicle: saline 100 % of control | dose: 100.0 mg/kg/injection, schedule: Q01DX005 (ip), vehicle: saline 113 % of control

O=c1cc[nH]c(=O)[nH]1
inactive: dose: 32.0 mg/kg/injection, schedule: Q01DX005 (ip), vehicle: Klucel (hydroxypropylcellulose) (HPC) 98 % of control | dose: 64.0 mg/kg/injection, schedule: Q01DX005 (ip), vehicle: Klucel (hydroxypropylcellulose) (HPC) 98 % of control and 105 % of control | dose: 64.0 mg/kg/injection, schedule: Q01DX005 (ip), vehicle: saline with Tween-80 95 % of control | dose: 128.0 mg/kg/injection, schedule: Q01DX005 (ip), vehicle: Klucel (hydroxypropylcellulose) (HPC) 100 % of control and 108 % of control | dose: 128.0 mg/kg/injection, schedule: Q01DX005 (ip), vehicle: saline with Tween-80 98 % of control | dose: 256.0 mg/kg/injection, schedule: Q01DX005 (ip), vehicle: Klucel (hydroxypropylcellulose) (HPC) 98 % of control and 110 % of control | dose: 256.0 mg/kg/injection, schedule: Q01DX005 (ip), vehicle: saline with Tween-80 94 % of control | dose: 512.0 mg/kg/injection, schedule: Q01DX005 (ip), vehicle: Klucel (hydroxypropylcellulose) (HPC) 96 % of control and 104 % of control | dose: 512.0 mg/kg/injection, schedule: Q01DX005 (ip), vehicle: saline with Tween-80 104 % of control | dose: 1024.0 mg/kg/injection, schedule: Q01DX005 (ip), vehicle: Klucel (hydroxypropylcellulose) (HPC) 109 % of control | dose: 1024.0 mg/kg/injection, schedule: Q01DX005 (ip), vehicle: saline with Tween-80 100 % of control

O=C1NC(=O)C2(CCc3ccc(N(CCCl)CCCl)cc32)N1 (stereo unspecified)
inactive: dose: 0.75 mg/kg/injection, schedule: Q01DX009 (ip), vehicle: Klucel (hydroxypropylcellulose) (HPC) 93 % of control | dose: 1.5 mg/kg/injection, schedule: Q01DX009 (ip), vehicle: Klucel (hydroxypropylcellulose) (HPC) 101 % of control | dose: 3.0 mg/kg/injection, schedule: Q01DX009 (ip), vehicle: Klucel (hydroxypropylcellulose) (HPC) 115 % of control | dose: 6.0 mg/kg/injection, schedule: Q01DX009 (ip), vehicle: Klucel (hydroxypropylcellulose) (HPC) 98 % of control | dose: 6.25 mg/kg/injection, schedule: Q01DX005 (ip), vehicle: Klucel (hydroxypropylcellulose) (HPC) 114 % of control | dose: 12.0 mg/kg/injection, schedule: Q01DX009 (ip), vehicle: Klucel (hydroxypropylcellulose) (HPC) 91 % of control | dose: 12.5 mg/kg/injection, schedule: Q01DX005 (ip), vehicle: Klucel (hydroxypropylcellulose) (HPC) 115 % of control | dose: 25.0 mg/kg/injection, schedule: Q01DX005 (ip), vehicle: Klucel (hydroxypropylcellulose) (HPC) 102 % of control
